We go through 16 compounds from patent US20250368648A1, “MULTI-CYCLIC IRAK AND FLT3 INHIBITING COMPOUNDS AND USES THEREOF” (CHILDREN'S HOSPITAL MEDICAL CENTER, priority 2022, published 2025).

In general, IC50 refers to the concentration that gives 50% inhibition. Low readings indicate greater potency in that assay, high ones weaker potency in that assay.

One assay addresses T1, FLT3 (Homo sapiens, UniProt P36888).
T1 sequence (P36888 27-993): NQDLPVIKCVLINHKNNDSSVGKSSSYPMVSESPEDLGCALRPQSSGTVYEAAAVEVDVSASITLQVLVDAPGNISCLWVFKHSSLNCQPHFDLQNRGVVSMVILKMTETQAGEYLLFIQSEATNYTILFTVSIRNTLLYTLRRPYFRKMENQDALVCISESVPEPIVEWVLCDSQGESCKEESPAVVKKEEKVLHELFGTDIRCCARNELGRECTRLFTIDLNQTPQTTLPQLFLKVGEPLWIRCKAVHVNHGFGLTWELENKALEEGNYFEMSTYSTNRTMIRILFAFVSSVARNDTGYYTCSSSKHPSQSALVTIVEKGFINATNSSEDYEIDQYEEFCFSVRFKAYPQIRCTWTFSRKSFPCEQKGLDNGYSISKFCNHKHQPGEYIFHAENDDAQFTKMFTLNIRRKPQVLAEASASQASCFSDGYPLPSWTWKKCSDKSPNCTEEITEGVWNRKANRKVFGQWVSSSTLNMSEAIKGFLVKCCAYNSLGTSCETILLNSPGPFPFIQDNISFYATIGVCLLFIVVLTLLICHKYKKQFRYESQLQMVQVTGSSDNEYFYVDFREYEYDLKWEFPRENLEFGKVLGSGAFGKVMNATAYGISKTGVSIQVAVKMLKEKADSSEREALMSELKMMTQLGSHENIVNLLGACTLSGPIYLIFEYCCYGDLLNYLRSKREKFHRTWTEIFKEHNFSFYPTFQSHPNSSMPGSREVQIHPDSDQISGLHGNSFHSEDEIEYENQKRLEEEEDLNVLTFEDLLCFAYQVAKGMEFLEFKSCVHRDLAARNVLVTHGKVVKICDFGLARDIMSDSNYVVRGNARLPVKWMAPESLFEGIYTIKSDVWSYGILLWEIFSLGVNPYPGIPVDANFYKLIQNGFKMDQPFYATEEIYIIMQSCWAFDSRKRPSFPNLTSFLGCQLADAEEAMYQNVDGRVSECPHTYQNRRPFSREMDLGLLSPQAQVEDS
The assay is described as follows: RBC HotSpot Kinase Assay, FLT3. In kind it is biochemical. The following applies: HotSpot functional assay, isolated kinase enzyme, 33P-ATP. Details: purchased RBC (Reaction Biology) HotSpot assay. The gist of the method:
(§1)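 Isolated kinases, possibly truncated or lacking regulatory receptor regions, were preincubated with compound for 20 min at room temp in 20 mM Hepes pH 7.5, 10 mM MgCl2, 1 mM EGTA, 2 mM DTT, 1% DMSO. Reactions were started with ^33P-ATP and run 2 h at room temperature; activity was read by P81 filter binding.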

For the next assay, the target named is T2, IRAK4 (Homo sapiens, UniProt Q9NWZ3).
T2 sequence (Q9NWZ3 1-460): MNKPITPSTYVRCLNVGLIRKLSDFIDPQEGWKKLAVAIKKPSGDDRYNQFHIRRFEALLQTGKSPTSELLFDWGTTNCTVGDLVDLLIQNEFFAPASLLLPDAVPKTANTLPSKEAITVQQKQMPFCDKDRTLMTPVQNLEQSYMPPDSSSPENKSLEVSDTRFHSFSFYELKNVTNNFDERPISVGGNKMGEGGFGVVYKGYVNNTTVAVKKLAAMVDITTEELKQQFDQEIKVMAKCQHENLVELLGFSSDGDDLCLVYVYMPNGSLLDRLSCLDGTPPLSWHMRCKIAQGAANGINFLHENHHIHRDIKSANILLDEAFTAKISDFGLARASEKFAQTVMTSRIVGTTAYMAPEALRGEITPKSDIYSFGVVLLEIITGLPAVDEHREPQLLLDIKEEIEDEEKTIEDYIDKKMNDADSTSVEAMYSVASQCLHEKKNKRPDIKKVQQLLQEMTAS
Description: RBC HotSpot Kinase Assay, IRAK4. The settings on record: HotSpot functional assay, isolated kinase enzyme, 33P-ATP. Format: biochemical. On the set-up: purchased RBC (Reaction Biology) HotSpot assay. The gist of the method: as §1

A further assay has as its system MOLM14 D835Y cells. The assay is described as follows: MOLM14 D835Y cell viability assay (Cell Titer Glo). In kind it is cell-based. The following applies: Homo sapiens, MOLM-14, 48 h. Here is the method: The cell line has activated FLT3 receptors which carry additional resistance mutations in the kinase domain (D835Y).
MOLM14 D835Y cells were grown in RPMI-1640 media supplemented with 20% fetal bovine serum (FBS). […] After cell addition, 23 nL of test compound were transferred into individual wells (22 doses tested for each test compound, with a 1:2 dilution series starting at 10 μM) via a 1536 pin-tool. Bortezomib (final concentration 2.3 μM) was used as a positive control for cell cytotoxicity.

For a further assay, the target named is T3, IRAK1 (Homo sapiens, UniProt P51617).
T3 construct: purchased RBC (Reaction Biology) HotSpot assay
The assay is described as follows: RBC HotSpot Kinase Assay, IRAK1. In kind it is biochemical. The settings on record: HotSpot functional assay, isolated kinase enzyme, 33P-ATP. In short, it runs like this:
as §1

T3 sequence (P51617 whole entry): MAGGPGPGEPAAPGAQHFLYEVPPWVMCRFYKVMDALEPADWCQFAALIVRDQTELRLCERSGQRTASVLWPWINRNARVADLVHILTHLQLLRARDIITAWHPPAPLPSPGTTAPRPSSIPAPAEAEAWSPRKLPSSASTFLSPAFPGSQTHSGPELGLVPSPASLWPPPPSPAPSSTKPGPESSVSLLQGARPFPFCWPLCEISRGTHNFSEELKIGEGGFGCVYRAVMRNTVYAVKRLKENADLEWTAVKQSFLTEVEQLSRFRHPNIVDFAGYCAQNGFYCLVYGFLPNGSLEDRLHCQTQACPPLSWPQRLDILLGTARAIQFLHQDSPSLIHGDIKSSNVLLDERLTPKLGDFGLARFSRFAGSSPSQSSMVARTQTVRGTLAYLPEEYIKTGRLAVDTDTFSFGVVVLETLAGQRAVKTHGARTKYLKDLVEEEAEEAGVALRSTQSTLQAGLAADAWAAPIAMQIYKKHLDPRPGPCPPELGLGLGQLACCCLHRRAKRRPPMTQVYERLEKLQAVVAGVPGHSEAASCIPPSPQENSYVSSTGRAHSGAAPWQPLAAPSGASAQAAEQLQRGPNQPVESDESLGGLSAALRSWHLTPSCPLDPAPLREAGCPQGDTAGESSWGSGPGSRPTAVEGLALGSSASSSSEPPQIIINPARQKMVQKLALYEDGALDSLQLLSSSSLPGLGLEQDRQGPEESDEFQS

For the compound `COc1cc2ncc(-c3ccc(F)c(N[C@H]4CNC[C@@H]4F)n3)n2nc1C(C)(C)O` [Compound 5a, 2-(3-(5-fluoro-6-(((3S,4S)-4-fluoropyrrolidin-3-yl)amino)pyridin-2-yl)-7-methoxyimidazo[1,2-b]pyridazin-6-yl)propan-2-ol], the concentration for half-maximal inhibition (IC50) at FLT3 stood at 0.007 µM; at IRAK4, 0.07 µM; in the assay on MOLM14 D835Y cells, 0.408 µM; against IRAK1, 2.67 µM.

Consider `COc1cc2ncc(-c3ccc(F)c(N[C@@H]4CCCNC4)n3)n2nc1C(C)(C)O` [Compound 6a, (R)-2-(3-(5-fluoro-6-(piperidin-3-ylamino)pyridin-2-yl)-7-methoxyimidazo[1,2-b]pyridazin-6-yl)propan-2-ol], for which the IC50 at FLT3 was found to be 0.009 µM; on IRAK4, 0.558 µM; in the assay with MOLM14 D835Y cells, 0.289 µM; against IRAK1, 2.85 µM.

Regarding `COc1cc2ncc(-c3nc(N[C@H]4CNC[C@@H]4F)c(F)cc3F)n2nc1C1CCC1` [Compound 13a, 6-(6-cyclobutyl-7-methoxyimidazo[1,2-b]pyridazin-3-yl)-3,5-difluoro-N-((3S,4S)-4-fluoropyrrolidin-3-yl)pyridin-2-amine], the IC50 against FLT3 was less than 0.0005 µM; against IRAK4 it was 0.001 µM; in the assay on MOLM14 D835Y cells, 0.058 µM; on IRAK1, 0.006 µM.

On to `COc1cc2ncc(-c3nc(N[C@@H]4CCCNC4)c(F)cc3F)n2nc1C1CCC1` [Compound 14a, (R)-6-(6-cyclobutyl-7-methoxyimidazo[1,2-b]pyridazin-3-yl)-3,5-difluoro-N-(piperidin-3-yl)pyridin-2-amine], for which the IC50 was less than 0.0005 µM against FLT3, 0.004 µM against IRAK4, 0.015 µM in the assay on MOLM14 D835Y cells and 0.012 µM at IRAK1.

With `COc1cc2ncc(-c3cccc(N[C@H]4CNC[C@@H]4F)n3)n2nc1N1CCCC1=O` [Compound 25a, 1-(3-(6-(((3S,4S)-4-fluoropyrrolidin-3-yl)amino)pyridin-2-yl)-7-methoxyimidazo[1,2-b]pyridazin-6-yl)pyrrolidin-2-one], the IC50 against FLT3 was 0.001 µM; on IRAK4, 0.336 µM; in the assay on MOLM14 D835Y cells, 1.02 µM; against IRAK1, 0.283 µM.

Take `COc1cc2ncc(-c3cccc(N[C@H]4CNCC[C@@H]4F)n3)n2nc1N1CCCC1=O` [Compound 26a, 1-(3-(6-(((3S,4S)-4-fluoropiperidin-3-yl)amino)pyridin-2-yl)-7-methoxyimidazo[1,2-b]pyridazin-6-yl)pyrrolidin-2-one]: the half-inhibitory concentration (IC50) against FLT3 was 0.0009 µM; against IRAK4 it was 0.237 µM; in the assay with MOLM14 D835Y cells, 0.257 µM; against IRAK1, 0.29 µM.

Take `COc1cc2ncc(-c3ccc(C)c(N[C@H]4CNCC[C@@H]4F)n3)n2nc1C1CC1` [Compound 38a, 6-(6-cyclopropyl-7-methoxyimidazo[1,2-b]pyridazin-3-yl)-N-((3S,4S)-4-fluoropiperidin-3-yl)-3-methylpyridin-2-amine]: the IC50 against FLT3 was 0.05 µM; on IRAK4 it was 7.08 µM; with MOLM14 D835Y cells it was 2.89 µM; at IRAK1 it was greater than 10 µM.

For the compound `COc1cc2ncc(-c3nc(N[C@H]4CNCC[C@@H]4F)ccc3C)n2nc1C1CC1` [Compound 39a, 6-(6-cyclopropyl-7-methoxyimidazo[1,2-b]pyridazin-3-yl)-N-((3S,4S)-4-fluoropiperidin-3-yl)-5-methylpyridin-2-amine], the half-maximal inhibitory concentration (IC50) was less than 0.0005 µM against FLT3, 0.045 µM at IRAK4, 0.129 µM in the assay on MOLM14 D835Y cells and 3.36 µM on IRAK1.

As to `COc1cc2ncc(-c3nc(N[C@@H]4CCCNC4)ccc3C)n2nc1C1CC1` [Compound 40a, (R)-6-(6-cyclopropyl-7-methoxyimidazo[1,2-b]pyridazin-3-yl)-5-methyl-N-(piperidin-3-yl)pyridin-2-amine], the IC50 against FLT3 was less than 0.0005 µM; against IRAK4, 0.018 µM; with MOLM14 D835Y cells it was 0.129 µM; at IRAK1 it was greater than 10 µM.

Consider `COc1cc2ncc(-c3ccc(C)c(N[C@@H]4CCCNC4)n3)n2nc1C1CC1` [Compound 41a, (R)-6-(6-cyclopropyl-7-methoxyimidazo[1,2-b]pyridazin-3-yl)-3-methyl-N-(piperidin-3-yl)pyridin-2-amine], for which the IC50 against FLT3 was 0.105 µM; at IRAK4, greater than 10 µM; in the assay with MOLM14 D835Y cells, 1.62 µM; at IRAK1 it was greater than 10 µM.

Turning to `COc1cc2ncc(-c3ccc(C)c(N[C@H]4CNC[C@@H]4F)n3)n2nc1C1CC1` [Compound 42a, 6-(6-cyclopropyl-7-methoxyimidazo[1,2-b]pyridazin-3-yl)-N-((3S,4S)-4-fluoropyrrolidin-3-yl)-3-methylpyridin-2-amine], the IC50 on FLT3 is 0.135 µM; against IRAK4, 8.43 µM; in the assay with MOLM14 D835Y cells, 7.25 µM; against IRAK1 it was greater than 10 µM.

On to `COc1cc2ncc(-c3nc(N[C@H]4CNC[C@@H]4F)ccc3C)n2nc1C1CC1` [Compound 43a, 6-(6-cyclopropyl-7-methoxyimidazo[1,2-b]pyridazin-3-yl)-N-((3S,4S)-4-fluoropyrrolidin-3-yl)-5-methylpyridin-2-amine], for which the IC50 amounted to 0.0007 µM at FLT3, 0.341 µM against IRAK4, 0.646 µM with MOLM14 D835Y cells and 8.27 µM on IRAK1.

On to `COc1cc2ncc(-c3nc(N[C@@H]4CCCNC4)ccc3F)n2nc1C1CC1` [Compound 44a, (R)-6-(6-cyclopropyl-7-methoxyimidazo[1,2-b]pyridazin-3-yl)-5-fluoro-N-(piperidin-3-yl)pyridin-2-amine], for which the IC50 at FLT3 was less than 0.0005 µM; at IRAK4, 0.002 µM; with MOLM14 D835Y cells it was 0.003 µM; at IRAK1, 0.062 µM.

In the case of `COc1cc2ncc(-c3ccc(F)c(N[C@H]4CNCC[C@@H]4F)n3)n2nc1C1CC1` [Compound 48a, 6-(6-cyclopropyl-7-methoxyimidazo[1,2-b]pyridazin-3-yl)-3-fluoro-N-((3S,4S)-4-fluoropiperidin-3-yl)pyridin-2-amine], the IC50 is less than 0.0005 µM on FLT3, 0.001 µM against IRAK4, 0.026 µM in the assay with MOLM14 D835Y cells and 0.169 µM on IRAK1.

As to `COc1cc2ncc(-c3ccc(F)c(N[C@@H]4CCCNC4)n3)n2nc1C1CC1` [Compound 49a, (R)-6-(6-cyclopropyl-7-methoxyimidazo[1,2-b]pyridazin-3-yl)-3-fluoro-N-(piperidin-3-yl)pyridin-2-amine], the IC50 against FLT3 was less than 0.0005 µM; at IRAK4, 0.003 µM; in the assay on MOLM14 D835Y cells, 0.051 µM; against IRAK1, 0.449 µM.

In the case of `Fc1cc(F)c(-c2cnc3cc(OCC(F)F)cnn23)nc1N[C@H]1CNC[C@@H]1F` [Compound 82a, 6-(7-(2,2-difluoroethoxy)imidazo[1,2-b]pyridazin-3-yl)-3,5-difluoro-N-((3 S,4S)-4-fluoropyrrolidin-3-yl)pyridin-2-amine], the concentration for half-maximal inhibition (IC50) against FLT3 is less than 0.0005 µM; against IRAK4 it was 0.009 µM; with MOLM14 D835Y cells it was 0.204 µM; at IRAK1, 0.441 µM.
